Values quoted from earlier work in patent US6908630B2, “Combinations of sesquiterpene lactones and ditepene triepoxide lactones for synergistic inhibition of cyclooxygenase-2” (Metaproteomics, LLC, priority 2000, dated 2005).

Details: gastrointestinal disturbance, nausea and vomiting, hypotension, edema

CC(C)[C@]12O[C@H]1[C@@H]1O[C@]13[C@]1(O[C@H]1C[C@H]1C4=C(CC[C@@]13C)C(=O)OC4)[C@@H]2O [Triptolide]
patients showing some type of side effects: Approximately 28%
